Test results taken from publication PMC3557594 (Biochimie, 2012).
Read-outs that look alike come from different tables or passages of the source.

Assays:
NmAPN = NmAPN (Neisseria meningitidis, UniProt Q9JYV4); assay: biochemical; format: biochemical, Neisseria meningitides; settings: for mode of inhibition: Lineweaver-Burk plot
[1] = target: T1, Neisseria meningitides alanine aminopeptidase (NmAPN) (Neisseria meningitidis, UniProt Q9JYV4); assay: Kinetic parameters determination; format: biochemical; settings: ACC substrate, 50 mM Tris-HCl pH 7.5, 37 °C, enzyme 1.13 nM
T1 sequence (Q9JYV4 1-867): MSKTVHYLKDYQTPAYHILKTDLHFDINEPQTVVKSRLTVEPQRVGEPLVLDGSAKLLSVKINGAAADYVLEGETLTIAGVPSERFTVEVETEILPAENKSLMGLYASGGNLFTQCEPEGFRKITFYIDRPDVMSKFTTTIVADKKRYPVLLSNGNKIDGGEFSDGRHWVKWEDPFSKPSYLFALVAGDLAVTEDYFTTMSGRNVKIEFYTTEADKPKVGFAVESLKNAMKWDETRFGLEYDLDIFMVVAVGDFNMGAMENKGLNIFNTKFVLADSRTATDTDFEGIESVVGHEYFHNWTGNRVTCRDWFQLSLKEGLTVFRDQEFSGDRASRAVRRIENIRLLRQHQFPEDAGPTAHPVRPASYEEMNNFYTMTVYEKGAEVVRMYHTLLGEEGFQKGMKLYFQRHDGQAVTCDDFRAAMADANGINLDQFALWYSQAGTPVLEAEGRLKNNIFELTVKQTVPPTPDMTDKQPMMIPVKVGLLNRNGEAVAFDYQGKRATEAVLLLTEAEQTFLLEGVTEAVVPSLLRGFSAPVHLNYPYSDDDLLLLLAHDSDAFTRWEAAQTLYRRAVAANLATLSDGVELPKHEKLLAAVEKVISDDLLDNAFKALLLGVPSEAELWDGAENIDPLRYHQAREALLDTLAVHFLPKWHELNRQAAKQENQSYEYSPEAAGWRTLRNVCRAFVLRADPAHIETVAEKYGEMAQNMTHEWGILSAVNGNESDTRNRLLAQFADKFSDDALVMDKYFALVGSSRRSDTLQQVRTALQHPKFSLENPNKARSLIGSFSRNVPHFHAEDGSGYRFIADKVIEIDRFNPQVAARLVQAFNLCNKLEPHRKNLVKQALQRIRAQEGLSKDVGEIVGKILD

porcine kidney APN = settings: cited from earlier work
[2] = target: T1, Neisseria meningitides alanine aminopeptidase (NmAPN); format: biochemical; settings: substrate 3 μM, enzyme 1.37 nM, pH 7.5
PfAPN = settings: Plasmodium falciparum APN; cited from earlier work

For `NC(CCc1ccccc1)[PH](=O)O` (stereo not shown) [Compound 3], the IC50 (NmAPN) was 1910 ± 50 nM.
For `NCC(=O)Nc1ccc2c(CC(N)=O)cc(=O)oc2c1` [Gly], the Km [1] was over 250 µM.
Molecule `NC(=O)Cc1cc(=O)oc2cc(NC(=O)[C@@H](N)Cc3ccc(Br)cc3)ccc12` [Compound 4-Br-L-Phe] has a Km [1] of over 250 µM.
For `NC(=O)CC[C@H](N)C(=O)Nc1ccc2c(CC(N)=O)cc(=O)oc2c1` [L-Gln], the Km [1] was over 250 µM.
In the case of `NC(CCc1ccccc1)P(=O)(O)O` (stereo not shown) [Compound 2], the IC50 (NmAPN) is reported as 1660 ± 70 nM.
For `NC(CCc1ccccc1)P(=O)(O)CC(Cc1ccccc1)C(=O)O` (stereo not shown) [Compound 4], the Ki (porcine kidney APN) is given as 276 nM, the IC50 (NmAPN) is given as 397 ± 24 nM and the Ki (NmAPN) is given as 302 ± 18 nM. For the same molecule, the mode of inhibition (NmAPN) was “reversible, competitive and tight-binding inhibitors”.
For `NC(=O)Cc1cc(=O)oc2cc(NC(=O)[C@@H](N)CCC(=O)OCc3ccccc3)ccc12` [L-Glu(Bzl)], the “rate of hydrolysis, proportional to kcat/Km, as percentage of the best substrate cleavage (L-hArg-ACC, 100%)” value [2] was 38.5–74.0%.
In the case of `N=C(NCCC[C@H](N)C(=O)Nc1ccc2c(CC(N)=O)cc(=O)oc2c1)N[N+](=O)[O-]` [L-Arg(NO2)], the “rate of hydrolysis, proportional to kcat/Km, as percentage of the best substrate cleavage (L-hArg-ACC, 100%)” value [2] is reported as 38.5–74.0%.
In the case of `N[C@@H](Cc1ccc(OCC(=O)O)cc1)C(=O)O` [4(1-carboxymethoxy)-L-Phe], the “hydrolysis of ACC substrate by NmAPN (in words)” value [2] is reported as “not hydrolyzed”.
For `NC(CCc1ccccc1)P(=O)(O)CC(Cc1ccc(O)cc1)C(=O)O` (stereo not shown) [Compound 5], the Ki (PfAPN) is listed as 232 nM, the Ki (porcine kidney APN) is listed as 36 nM and the IC50 (NmAPN) is listed as 70 ± 7 nM. For the same molecule, the mode of inhibition (NmAPN) was “reversible, competitive and tight-binding inhibitors”.
`N=C(N)NCCCC(N)P(=O)(O)O` (stereo not shown) [Compound 1] gave an IC50 (NmAPN) of 1910 ± 180 nM and a Ki (NmAPN) of 1460 ± 140 nM.
With `CC[C@H](N)C(=O)Nc1ccc2c(CC(N)=O)cc(=O)oc2c1` [L-Abu] the “rate of hydrolysis, proportional to kcat/Km, as percentage of the best substrate cleavage (L-hArg-ACC, 100%)” value [2] was 20–40%.
In the case of `NCCC(=O)O` [β-Ala], the “hydrolysis of ACC substrate by NmAPN (in words)” value [2] is reported as “not hydrolyzed”.
With `NC(CCc1ccccc1)P(=O)(O)CNC(Cc1ccc(O)cc1)C(=O)O` (stereo not shown) [Compound 6] the IC50 (NmAPN; L-Arg-ACC 20 μM, enzyme 0.85 nM, 30 min preincubation, 37 °C) was 3290 ± 150 nM and the Ki (NmAPN; calculated from IC50 by Cheng-Prusoff equation, L-Arg-ACC 20 μM) was 2510 ± 110 nM.
